By Km is commonly meant the substrate concentration at which the rate is half of its maximum. For orientation: kcat means the number of substrate molecules converted per active site and unit of time at saturation.

We go through three molecules from publication PMC5794219 (SLAS discovery : advancing life sciences R & D, 2017).

One data set relates to E. coli HisRS. The following applies: cited from earlier work.
The target in another data set is T1, P. aeruginosa HisRS (Pseudomonas aeruginosa, UniProt Q9HXJ5).
T1 sequence (Q9HXJ5 1-429): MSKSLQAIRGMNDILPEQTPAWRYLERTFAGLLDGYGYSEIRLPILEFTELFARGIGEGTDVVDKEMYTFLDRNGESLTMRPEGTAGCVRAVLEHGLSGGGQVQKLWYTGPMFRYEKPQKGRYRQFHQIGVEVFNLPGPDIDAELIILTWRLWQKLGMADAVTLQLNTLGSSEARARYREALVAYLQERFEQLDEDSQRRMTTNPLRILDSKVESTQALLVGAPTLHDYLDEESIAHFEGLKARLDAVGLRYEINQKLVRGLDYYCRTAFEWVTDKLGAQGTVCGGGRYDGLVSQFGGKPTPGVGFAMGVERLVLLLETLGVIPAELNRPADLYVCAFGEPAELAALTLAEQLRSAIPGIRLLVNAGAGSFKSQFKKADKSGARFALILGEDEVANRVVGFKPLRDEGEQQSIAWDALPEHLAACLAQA
Description: ATP:PPi exchange reactions. The class given is biochemical. The following applies: substrate varied, other substrate constant at 2 mM.

Substrate in data set [1]: N[C@@H](Cc1c[nH]cn1)C(=O)O
Description: ATP:PPi exchange reactions. Type of data set: biochemical, Pseudomonas aeruginosa. The following applies: other: substrate varied, other substrate constant at 2 mM; pH 7.5; 37.0 °C.

Substrate in data set [2]: Nc1ncnc2c1ncn2[C@@H]1O[C@H](COP(=O)(O)OP(=O)(O)OP(=O)(O)O)[C@@H](O)[C@H]1O
The experiment in a line: ATP:[32P]PPi exchange at pH 7.5, 37 °C, 0.05 µM HisRS, ATP varied. Type of data set: biochemical.

Turning to `Nc1ncnc2c1ncn2[C@@H]1O[C@H](COP(=O)(O)OP(=O)(O)OP(=O)(O)O)[C@@H](O)[C@H]1O` [ATP], the Km in the data set with E. coli HisRS (E. coli HisRS ref 12) is 890 µM. In addition, the kcat in the data set on E. coli HisRS (E. coli HisRS, interaction with ATP ref 24) is 34 s⁻¹. At P. aeruginosa HisRS, the Michaelis constant (Km) was 298 µM and the “kcat (turnover number)” value was 16.8 s⁻¹.

As for `N[C@@H](Cc1c[nH]cn1)C(=O)O` [histidine], the turnover in the data set on E. coli HisRS (E. coli HisRS, interaction with His, different research groups ref 24, 25) is 7 to 142 s⁻¹.

B1: P. aeruginosa HisRS (Pseudomonas aeruginosa PAO1) (protein)
chain: T1 sequence (Q9HXJ5 1-429)
For B1, in data set [1], the Km was found to be 37.6 µM and the kcat is 8.32 s⁻¹. In addition, the Km in data set [2] came to 298.5 µM.
